Assay results as given in patent US5763480A, “Inhibitors of cell-medicated disorders” (priority 1994, dated 1998).
pEC50: −log10 of the molar value. Like-named read-outs stand apart in the source and are kept apart here.

Columns and labels:
[1] = tested on: proton pump of the osteoclast ruffled membrane vesicles; type: biochemical; details: read-out: 50% effective concentration, inhibition of vesicle acidification, FIG. 3
From the text: The effect of the metal-EDTA complexes on the proton pump of isolated osteoclast ruffled membrane vesicles was studied. For the study, the isolation, preparation and assay of the acidifying ruffled membrane vesicles were accomplished according to the procedures of Blair et al., J. Cell. Biochem., 48, 401-410 (1992).
The y-axis indicates the acidification by the membranes in relation to the molar concentration of the test composition, as indicated on the x-axis.

bone resorption [2] = details: in vivo; cited from earlier work
cellular proton pump = experiment: Blocking of cellular proton pump by metal-chelate complexes / stopping of the block by chelating agents; details: for blocking of the cellular proton pump in combination with Tl or In: chelating agent combined with Tl or In
osteoclasts = experiment: Inhibition of osteoclast-mediated bone resorption in vitro (release of radiolabelled bone); type: cell-based, laying hens; details: read-out: 50% effective concentration, inhibition of bone resorption by osteoclasts in culture, FIG. 2, up to six days, labelled bone, 10,000 cells per well
Description: Osteoclasts were isolated from calcium-deprived, laying hens, and metabolically radiolabelled bone was prepared therefrom (Blair et al., J. Cell Biol., 102, 1164-1172 (1986)). These osteoclasts were cultured in 24 well dishes at 10,000 cells per well, to which were added labelled bone and test compounds. The culture supernatants were assayed for released radioactivity for up to six days after the addition of the labelled bone.
The y-axis indicates the percentage of the total radiolabelled bone that was released by osteoclast activity to the culture supernatant in response to varying the molar concentration (x-axis) of the various test compositions. […] The 50% effective concentrations of suramin and gallium nitrate were 700 nM and 2000 nM, respectively.

bone resorption [3] = details: cited from earlier work
[4] = Solubility of Tl and In EDTA complexes versus halide salts in physiological saline; type: physicochemical; details: physiological saline / physiological solvents
From the text: The pH of the resulting solutions was then raised to pH 7.0 and filtered to achieve sterility. […] The solubility characteristics of these Tl and In complexes were compared to the solubility characteristics of the respective halogen salts.

[5] = tested on: osteoclast-mediated bone resorption; experiment: PTH stimulated bone resorption of rats in vivo, serum calcium (hypercalcemia model)
Description: The ability of the metal-EDTA complexes to inhibit osteoclast-mediated bone resorption was tested on two groups of experimental rats treated to provide a hypercalcemia model (according to the procedures of Jaeger et al., Am. J. Physiol., 252, E790-E798 (1987)) as compared to two groups of untreated control rats. Experimental rats were surgically parathyroidectomized, and the effectiveness of the parathyroidectomy was gauged by determining the subject rats' serum calcium levels 72 hours post-surgery. A fall in calcium observed at that time reflected the decrease of bone resorption resulting from the removal of the parathyroid glands and the consequent decrease in circulating parathyroid hormone (PTH), a regulator of extra-cellular Ca^++ concentration. […] Serum calcium levels were determined after a 24-hour fast on the third day after the last drug administration and again two weeks later.
All the animals in this study underwent the same two surgical procedures and received PTH via the implanted osmotic pump starting on day 3. […] After the two weeks were complete, serum calcium was determined again and compared to the earlier values and the controls. […]

[6] = tested on: chloride channel and proton pump of ruffled membrane vesicles; experiment: Valinomycin reversal test distinguishing chloride channel and proton pump in ruffled membrane vesicles; type: biochemical; details: control measurement, 1 micromolar valinomycin
Description: Because both the chloride channel and the proton pump are present in the ruffled membrane vesicles, the inhibition of acidification that was observed was possibly due to effects on either or both of these transporters. The effects of these two transporters were distinguished in other experiments by noting and using the differential effects of valinomycin on the chloride channel and proton pump in the presence of 120 mM K^+. This drug relieves the build-up of membrane potential yet permits proton transport.

[Tl] [Tl, thallium]
pEC50 [1]: 4.52

CC(O)(P(=O)(O)O)P(=O)(O)O [etidronate]
adverse effects (bone resorption [2]): impaired mineralization and thus, paradoxically, increased bone fragility
efficacy on bone resorption and bone disease (bone resorption [2]): effective inhibitor of bone resorption

[Ga] [Ga, gallium]
pEC50 [1]: 3.52

O=P(O)(O)C(Cl)(Cl)P(=O)(O)O [clodronate]
adverse effects (bone resorption [2]): development of acute leukemia
efficacy on bone resorption and bone disease (bone resorption [2]): effective not only in Paget's disease, but also in the treatment of hypercalcemia and osteolytic bone disease

O=C(O)CN(CCN(CC(=O)O)CC(=O)O)CC(=O)O [EDTA, ethylenediaminetetraacetic acid]
suitability for stopping the effect (cellular proton pump; metal is Tl or In): not a suitable chelating agent for stopping the effect

O=C(O)CN(CCOCCOCCN(CC(=O)O)CC(=O)O)CC(=O)O [EGTA, ethylene glycol bis (o-aminoethyl ether) N,N,N',N'-tetraacetic acid]
stopping of the proton pump-blocking effect by chelating agent (cellular proton pump; Ga(III)): stops the cellular proton pump-blocking effect
blocking of the cellular proton pump in combination with Tl or In (cellular proton pump): ineffective

O=C(O)CN(CCN(CC(=O)O)CC(=O)O)CCN(CC(=O)O)CC(=O)O [DPTA, diethylenetriaminepentaacetic acid]
stopping of the proton pump-blocking effect by chelating agent (cellular proton pump; In(III) and Tl(III)): stops the cellular proton pump-blocking effect
blocking of the cellular proton pump in combination with Tl or In (cellular proton pump): ineffective

O=[N+]([O-])[O-].O=[N+]([O-])[O-].O=[N+]([O-])[O-].[Ga+3] [gallium nitrate]
pEC50 (osteoclasts): 5.70
adverse effects (bone resorption [3]; gallium compound treatment): anemia, nausea and vomiting, and renal toxicity

[Cl][Tl]([Cl])[Cl] [TlCl3]
solubility (in words) [4]: could not be prepared

PTH: synthetic PTH (BPTH 1-34 (i.e., rat peptide 1-34), purchased from Bachem California) (AVSEIQLMHNLGKHLASVERMQWLRKKLQDVHNF; Parathyroid hormone; UniProt P04089 32-65, looked up, fragment)
serum calcium (in words) ([5]; PTH without Tl-EDTA or In-EDTA, with or without parathyroid gland): elevated calcium concentrations
serum calcium level relative to pretreatment levels ([5]; constant PTH by subcutaneous osmotic pump, parathyroidectomized rats): 150%

O=C(O)CN(CC(=O)O)[C@@H]1CCCC[C@H]1N(CC(=O)O)CC(=O)O (relative stereo) [CDTA, trans-1,2-diaminocyclohexane-N,N,N',N'-tetraacetic acid]
stopping of the proton pump-blocking effect by chelating agent (cellular proton pump; In(III) and Tl(III)): stops the cellular proton pump-blocking effect
blocking of the cellular proton pump in combination with Tl or In (cellular proton pump): ineffective

CC(C)[C@@H]1NC(=O)[C@H](C)OC(=O)[C@@H](C(C)C)NC(=O)[C@@H](C(C)C)OC(=O)[C@H](C(C)C)NC(=O)[C@H](C)OC(=O)[C@@H](C(C)C)NC(=O)[C@@H](C(C)C)OC(=O)[C@H](C(C)C)NC(=O)[C@H](C)OC(=O)[C@@H](C(C)C)NC(=O)[C@@H](C(C)C)OC1=O [valinomycin]
recovery of acidification after chloride channel inhibition [6]: recovered when 1 micromolar valinomycin was added

[Al] [Aluminum]
effect on bone calcium loss / bone resorption (bone resorption [3]; gallium nitrate in humans, aluminum in accidental poisoning): inhibit bone resorption

Cc1ccc(C(=O)Nc2ccc(S(=O)(=O)O)c3cc(S(=O)(=O)O)cc(S(=O)(=O)O)c23)cc1NC(=O)c1cccc(NC(=O)Nc2cccc(C(=O)Nc3cc(C(=O)Nc4ccc(S(=O)(=O)O)c5cc(S(=O)(=O)O)cc(S(=O)(=O)O)c45)ccc3C)c2)c1 [suramin]
pEC50 (osteoclasts; Osteoclast, 144 h): 6.15
